Measured values reported in the kinase profiling compilation of Christmann-Franck et al. (2016).

Tests used:
Experiment in all cases: KINOMEscan competition binding
MAP2K7 (human) = MAP2K7 (human) (UniProt O14733); conditions: compound 1.0 µM
CAMK2D (human) = CAMK2D (human) (UniProt Q13557); conditions: compound 1.0 µM
STK33 (human) = STK33 (human) (UniProt Q9BYT3); conditions: compound 1.0 µM
RPS6KA2 KD2 (human) = RPS6KA2 KD2 (human) (UniProt Q15349); conditions: compound 1.0 µM
EPHB2 (human) = EPHB2 (human) (UniProt P29323); conditions: compound 1.0 µM
SRPK2 (human) = SRPK2 (human) (UniProt P78362); conditions: compound 1.0 µM
ACVR2B (human) = ACVR2B (human) (UniProt Q13705); conditions: compound 1.0 µM
PRKCQ (human) = PRKCQ (human) (UniProt Q04759); conditions: compound 1.0 µM
SIK2 (human) = SIK2 (human) (UniProt Q9H0K1); conditions: compound 1.0 µM
EIF2AK1 (human) = EIF2AK1 (human) (UniProt Q9BQI3); conditions: compound 1.0 µM
PAK7 (human) = PAK7 (human) (UniProt Q9P286); conditions: compound 1.0 µM
CAMK2G (human) = CAMK2G (human) (UniProt Q13555); conditions: compound 1.0 µM
[1] = system: KIT (human), P10721 [V559D/T670I]; conditions: compound 1.0 µM
PRKX (human) = PRKX (human) (UniProt P51817); conditions: compound 1.0 µM
BMX (human) = BMX (human) (UniProt P51813); conditions: compound 1.0 µM
NEK9 (human) = NEK9 (human) (UniProt Q8TD19); conditions: compound 1.0 µM
PRKAA2 (human) = PRKAA2 (human) (UniProt P54646); conditions: compound 1.0 µM
MAPK12 (human) = MAPK12 (human) (UniProt P53778); conditions: compound 1.0 µM
EPHA4 (human) = EPHA4 (human) (UniProt P54764); conditions: compound 1.0 µM
ACVR1B (human) = ACVR1B (human) (UniProt P36896); conditions: compound 1.0 µM
PRKD2 (human) = PRKD2 (human) (UniProt Q9BZL6); conditions: compound 1.0 µM
TEC (human) = TEC (human) (UniProt P42680); conditions: compound 1.0 µM
FLT3 (human) = FLT3 (human) (UniProt P36888); conditions: compound 1.0 µM
CDC2L2 (human) = CDC2L2 (human) (UniProt Q9UQ88); conditions: compound 1.0 µM
MERTK (human) = MERTK (human) (UniProt Q12866); conditions: compound 1.0 µM
DAPK3 (human) = DAPK3 (human) (UniProt O43293); conditions: compound 1.0 µM
[2] = system: KIT (human), P10721 [L576P]; conditions: compound 1.0 µM
PIK3CD (human) = PIK3CD (human) (UniProt O00329); conditions: compound 1.0 µM
CDK16 (human) = CDK16 (human) (UniProt Q00536); conditions: compound 1.0 µM
STK17B (human) = STK17B (human) (UniProt O94768); conditions: compound 1.0 µM
[3] = system: BRAF (human), P15056 [V600E]; conditions: compound 1.0 µM
ROCK1 (human) = ROCK1 (human) (UniProt Q13464); conditions: compound 1.0 µM
IRAK1 (human) = IRAK1 (human) (UniProt P51617); conditions: compound 1.0 µM
CLK2 (human) = CLK2 (human) (UniProt P49760); conditions: compound 1.0 µM
MYLK4 (human) = MYLK4 (human) (UniProt Q86YV6); conditions: for kinase still bound, per cent of control: compound 1.0 µM
CAMK4 (human) = CAMK4 (human) (UniProt Q16566); conditions: compound 1.0 µM
FLT1 (human) = FLT1 (human) (UniProt P17948); conditions: compound 1.0 µM
[4] = system: PIK3CA (human), P42336 [Q546K]; conditions: compound 1.0 µM
ACVR2A (human) = ACVR2A (human) (UniProt P27037); conditions: compound 1.0 µM
MARK1 (human) = MARK1 (human) (UniProt Q9P0L2); conditions: compound 1.0 µM
CIT (human) = CIT (human) (UniProt O14578); conditions: compound 1.0 µM
HCK (human) = HCK (human) (UniProt P08631); conditions: compound 1.0 µM
[5] = system: PIK3CA (human), P42336 [I800L]; conditions: compound 1.0 µM
Chain of PIK3CA (human), P42336 [I800L] (P42336 whole entry I800L, looked up): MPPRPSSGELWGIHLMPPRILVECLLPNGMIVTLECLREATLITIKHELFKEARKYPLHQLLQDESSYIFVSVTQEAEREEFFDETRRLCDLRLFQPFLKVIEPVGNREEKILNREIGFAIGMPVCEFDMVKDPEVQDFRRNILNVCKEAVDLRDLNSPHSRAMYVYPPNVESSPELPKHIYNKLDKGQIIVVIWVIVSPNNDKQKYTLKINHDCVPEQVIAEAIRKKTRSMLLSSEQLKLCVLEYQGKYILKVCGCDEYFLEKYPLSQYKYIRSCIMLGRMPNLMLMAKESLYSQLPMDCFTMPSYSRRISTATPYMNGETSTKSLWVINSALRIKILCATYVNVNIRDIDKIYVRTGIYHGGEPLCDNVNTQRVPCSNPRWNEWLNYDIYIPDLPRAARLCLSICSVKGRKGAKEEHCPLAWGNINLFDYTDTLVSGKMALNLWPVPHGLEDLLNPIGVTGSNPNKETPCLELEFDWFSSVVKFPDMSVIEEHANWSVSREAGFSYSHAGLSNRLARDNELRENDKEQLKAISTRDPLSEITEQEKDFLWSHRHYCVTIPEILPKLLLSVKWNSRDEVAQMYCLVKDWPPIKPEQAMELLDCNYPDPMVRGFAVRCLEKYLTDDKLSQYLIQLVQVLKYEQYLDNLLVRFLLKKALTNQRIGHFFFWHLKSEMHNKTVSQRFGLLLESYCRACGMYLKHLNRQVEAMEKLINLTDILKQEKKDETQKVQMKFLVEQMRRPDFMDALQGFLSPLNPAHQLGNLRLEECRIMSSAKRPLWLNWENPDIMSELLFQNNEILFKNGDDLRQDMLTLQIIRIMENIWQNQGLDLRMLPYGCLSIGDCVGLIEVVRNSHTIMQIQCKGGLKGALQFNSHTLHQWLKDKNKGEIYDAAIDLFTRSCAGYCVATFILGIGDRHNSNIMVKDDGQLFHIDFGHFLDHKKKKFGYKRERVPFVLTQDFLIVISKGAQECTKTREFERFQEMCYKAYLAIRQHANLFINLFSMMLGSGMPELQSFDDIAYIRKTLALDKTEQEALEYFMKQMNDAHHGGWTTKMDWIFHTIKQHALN

Chain of MYLK4 (human) (Q86YV6 whole entry, looked up): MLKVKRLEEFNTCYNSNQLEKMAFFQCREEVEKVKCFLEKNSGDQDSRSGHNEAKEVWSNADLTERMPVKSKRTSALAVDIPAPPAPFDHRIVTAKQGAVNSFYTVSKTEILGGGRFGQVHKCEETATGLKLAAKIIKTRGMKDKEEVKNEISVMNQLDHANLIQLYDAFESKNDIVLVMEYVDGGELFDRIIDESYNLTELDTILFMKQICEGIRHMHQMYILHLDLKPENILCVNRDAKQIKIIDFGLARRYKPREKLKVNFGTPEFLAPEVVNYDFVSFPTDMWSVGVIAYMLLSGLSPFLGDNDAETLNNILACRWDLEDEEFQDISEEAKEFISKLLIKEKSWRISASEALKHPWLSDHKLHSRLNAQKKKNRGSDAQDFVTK
Chain of PRKD2 (human) (Q9BZL6 whole entry, looked up): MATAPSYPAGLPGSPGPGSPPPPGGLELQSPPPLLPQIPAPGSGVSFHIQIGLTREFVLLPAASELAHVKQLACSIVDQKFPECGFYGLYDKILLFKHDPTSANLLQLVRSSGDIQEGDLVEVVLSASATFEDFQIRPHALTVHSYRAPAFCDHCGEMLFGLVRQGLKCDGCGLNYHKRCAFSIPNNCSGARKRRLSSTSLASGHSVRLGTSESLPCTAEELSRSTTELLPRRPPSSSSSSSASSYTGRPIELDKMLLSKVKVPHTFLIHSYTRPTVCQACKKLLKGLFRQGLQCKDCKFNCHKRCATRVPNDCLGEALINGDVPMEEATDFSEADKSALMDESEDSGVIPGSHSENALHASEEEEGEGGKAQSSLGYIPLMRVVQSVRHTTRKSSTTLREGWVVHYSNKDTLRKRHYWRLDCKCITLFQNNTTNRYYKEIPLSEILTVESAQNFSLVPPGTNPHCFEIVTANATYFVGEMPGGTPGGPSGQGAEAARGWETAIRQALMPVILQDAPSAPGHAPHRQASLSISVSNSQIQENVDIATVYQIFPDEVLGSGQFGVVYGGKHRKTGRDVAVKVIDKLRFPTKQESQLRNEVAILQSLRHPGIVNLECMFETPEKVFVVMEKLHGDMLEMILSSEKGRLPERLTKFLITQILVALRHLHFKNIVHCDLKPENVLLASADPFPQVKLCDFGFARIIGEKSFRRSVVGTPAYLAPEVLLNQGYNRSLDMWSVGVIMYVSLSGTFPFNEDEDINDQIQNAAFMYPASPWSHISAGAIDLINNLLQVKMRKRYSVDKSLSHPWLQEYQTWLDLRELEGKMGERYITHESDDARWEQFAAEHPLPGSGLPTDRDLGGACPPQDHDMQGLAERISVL
Chain of ACVR2B (human) (Q13705 whole entry, looked up): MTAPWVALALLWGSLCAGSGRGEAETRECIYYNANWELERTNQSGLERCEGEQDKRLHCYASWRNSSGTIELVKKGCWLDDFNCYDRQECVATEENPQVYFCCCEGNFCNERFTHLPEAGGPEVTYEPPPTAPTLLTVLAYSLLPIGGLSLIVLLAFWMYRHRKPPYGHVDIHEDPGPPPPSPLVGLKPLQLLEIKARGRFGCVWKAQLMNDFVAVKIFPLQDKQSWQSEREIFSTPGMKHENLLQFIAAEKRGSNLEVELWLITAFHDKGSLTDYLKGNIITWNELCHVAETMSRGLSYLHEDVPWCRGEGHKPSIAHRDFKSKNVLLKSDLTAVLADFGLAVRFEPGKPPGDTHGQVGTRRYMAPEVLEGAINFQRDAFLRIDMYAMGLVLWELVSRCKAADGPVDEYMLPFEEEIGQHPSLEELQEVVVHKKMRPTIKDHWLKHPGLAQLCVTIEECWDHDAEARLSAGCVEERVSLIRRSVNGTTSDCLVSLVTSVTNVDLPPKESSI
Chain of MARK1 (human) (Q9P0L2 whole entry, looked up): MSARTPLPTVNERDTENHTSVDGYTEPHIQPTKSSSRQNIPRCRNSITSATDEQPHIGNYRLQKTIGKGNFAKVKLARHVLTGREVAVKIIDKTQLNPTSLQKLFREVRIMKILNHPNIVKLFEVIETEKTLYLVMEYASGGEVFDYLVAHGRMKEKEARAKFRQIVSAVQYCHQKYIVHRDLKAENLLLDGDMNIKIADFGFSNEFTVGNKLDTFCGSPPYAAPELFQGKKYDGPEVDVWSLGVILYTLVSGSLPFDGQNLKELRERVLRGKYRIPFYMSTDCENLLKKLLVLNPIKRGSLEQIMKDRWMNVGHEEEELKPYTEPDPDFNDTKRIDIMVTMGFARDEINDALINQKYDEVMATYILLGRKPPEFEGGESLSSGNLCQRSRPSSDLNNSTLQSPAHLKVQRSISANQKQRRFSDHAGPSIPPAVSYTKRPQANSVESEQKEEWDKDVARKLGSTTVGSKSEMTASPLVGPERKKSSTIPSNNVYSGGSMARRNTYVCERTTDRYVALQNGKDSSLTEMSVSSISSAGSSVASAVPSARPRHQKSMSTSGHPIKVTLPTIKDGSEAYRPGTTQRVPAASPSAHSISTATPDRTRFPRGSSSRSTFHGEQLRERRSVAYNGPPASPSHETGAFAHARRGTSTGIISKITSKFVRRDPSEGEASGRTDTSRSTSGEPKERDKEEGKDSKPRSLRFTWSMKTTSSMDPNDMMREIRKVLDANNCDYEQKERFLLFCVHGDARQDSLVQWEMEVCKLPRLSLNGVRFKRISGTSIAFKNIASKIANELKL
Chain of STK17B (human) (O94768 whole entry, looked up): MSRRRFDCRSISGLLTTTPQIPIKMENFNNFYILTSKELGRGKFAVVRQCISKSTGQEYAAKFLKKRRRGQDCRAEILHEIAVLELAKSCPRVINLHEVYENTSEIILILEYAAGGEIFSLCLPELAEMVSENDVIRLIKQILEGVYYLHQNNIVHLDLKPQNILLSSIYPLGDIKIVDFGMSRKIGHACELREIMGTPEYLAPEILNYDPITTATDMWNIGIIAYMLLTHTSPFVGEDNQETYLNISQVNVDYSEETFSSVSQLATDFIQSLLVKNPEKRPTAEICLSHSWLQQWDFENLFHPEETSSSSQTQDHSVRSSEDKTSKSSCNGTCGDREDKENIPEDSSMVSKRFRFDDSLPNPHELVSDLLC
Chain of KIT (human), P10721 [V559D/T670I] (P10721 whole entry V559D/T670I, looked up): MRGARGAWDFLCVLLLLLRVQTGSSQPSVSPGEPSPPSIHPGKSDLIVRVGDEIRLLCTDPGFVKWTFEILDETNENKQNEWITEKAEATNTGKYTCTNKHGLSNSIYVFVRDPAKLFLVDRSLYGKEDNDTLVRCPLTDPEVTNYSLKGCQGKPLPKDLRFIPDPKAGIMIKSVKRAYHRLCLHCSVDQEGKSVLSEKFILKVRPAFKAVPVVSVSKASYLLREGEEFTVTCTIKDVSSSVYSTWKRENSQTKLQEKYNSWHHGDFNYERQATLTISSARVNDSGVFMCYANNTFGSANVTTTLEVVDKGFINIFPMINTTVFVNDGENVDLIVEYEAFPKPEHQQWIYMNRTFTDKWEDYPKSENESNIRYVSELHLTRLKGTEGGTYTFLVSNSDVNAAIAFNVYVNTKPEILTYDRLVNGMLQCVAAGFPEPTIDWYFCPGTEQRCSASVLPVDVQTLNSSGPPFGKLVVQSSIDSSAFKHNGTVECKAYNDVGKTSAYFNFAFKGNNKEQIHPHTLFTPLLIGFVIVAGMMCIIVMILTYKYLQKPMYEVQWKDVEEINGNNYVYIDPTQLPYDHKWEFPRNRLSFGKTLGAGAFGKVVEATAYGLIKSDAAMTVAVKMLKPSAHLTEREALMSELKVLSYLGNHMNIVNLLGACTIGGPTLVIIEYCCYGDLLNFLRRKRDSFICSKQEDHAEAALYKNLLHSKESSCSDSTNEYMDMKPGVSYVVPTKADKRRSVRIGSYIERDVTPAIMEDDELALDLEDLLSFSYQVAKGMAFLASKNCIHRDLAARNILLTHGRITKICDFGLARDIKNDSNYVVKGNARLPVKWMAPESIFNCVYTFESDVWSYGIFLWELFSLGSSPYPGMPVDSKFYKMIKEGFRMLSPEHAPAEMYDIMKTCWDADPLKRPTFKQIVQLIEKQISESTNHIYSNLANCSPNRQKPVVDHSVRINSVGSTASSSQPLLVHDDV
Chain of PIK3CA (human), P42336 [Q546K] (P42336 whole entry Q546K, looked up): as the sequence (P42336 whole entry I800L, looked up) above, with Q546K, L800I counted along it

`Cc1cc(NC(=O)c2cccc(NC(=O)/C=C/CN(C)C)c2)ccc1Nc1nccc(-c2cccnc2)n1` showed a kinase still bound, per cent of control (MAP2K7 (human)) of 59%, a kinase still bound, per cent of control (CAMK2D (human)) of 100% and a kinase still bound, per cent of control (STK33 (human)) of 100%. It also gave a kinase still bound, per cent of control (RPS6KA2 KD2 (human)) of 100%, a kinase still bound, per cent of control (EPHB2 (human)) of 100% and a kinase still bound, per cent of control (SRPK2 (human)) of 100%. For the same compound, the kinase still bound, per cent of control (ACVR2B (human)) was 100%, the kinase still bound, per cent of control (PRKCQ (human)) was 100% and the kinase still bound, per cent of control (SIK2 (human)) was 88%. It also gave a kinase still bound, per cent of control (EIF2AK1 (human)) of 100%, a kinase still bound, per cent of control (PAK7 (human)) of 88% and a kinase still bound, per cent of control (CAMK2G (human)) of 100%. The kinase still bound, per cent of control [1] was 4.4%, the kinase still bound, per cent of control (PRKX (human)) was 0% and the kinase still bound, per cent of control (BMX (human)) was 100%. It also gave a kinase still bound, per cent of control (NEK9 (human)) of 100%, a kinase still bound, per cent of control (PRKAA2 (human)) of 84% and a kinase still bound, per cent of control (MAPK12 (human)) of 100%. It also gave a kinase still bound, per cent of control (EPHA4 (human)) of 100%, a kinase still bound, per cent of control (ACVR1B (human)) of 88% and a kinase still bound, per cent of control (PRKD2 (human)) of 100%. It also gave a kinase still bound, per cent of control (TEC (human)) of 100%, a kinase still bound, per cent of control (FLT3 (human)) of 77% and a kinase still bound, per cent of control (CDC2L2 (human)) of 98%. It also gave a kinase still bound, per cent of control (MERTK (human)) of 100%, a kinase still bound, per cent of control (DAPK3 (human)) of 100% and a kinase still bound, per cent of control [2] of 100%. The kinase still bound, per cent of control (PIK3CD (human)) was 95%, the kinase still bound, per cent of control (CDK16 (human)) was 100% and the kinase still bound, per cent of control (STK17B (human)) was 72%. The kinase still bound, per cent of control [3] was 100%, the kinase still bound, per cent of control (ROCK1 (human)) was 63% and the kinase still bound, per cent of control (IRAK1 (human)) was 13%. It also gave a kinase still bound, per cent of control (CLK2 (human)) of 95%, a Kd (MYLK4 (human)) of 4 µM and a kinase still bound, per cent of control (MYLK4 (human)) of 9.6%. It also gave a kinase still bound, per cent of control (CAMK4 (human)) of 100%, a kinase still bound, per cent of control (FLT1 (human)) of 100% and a kinase still bound, per cent of control [4] of 100%. For the same compound, the kinase still bound, per cent of control (ACVR2A (human)) was 100%, the kinase still bound, per cent of control (MARK1 (human)) was 100% and the kinase still bound, per cent of control (CIT (human)) was 100%. It also gave a kinase still bound, per cent of control (HCK (human)) of 100% and a kinase still bound, per cent of control [5] of 88%.

`CN(C)C/C=C/C(=O)Nc1cccc(C(=O)Nc2ccc(Nc3nccc(-c4cccnc4)n3)cc2)c1` was tested, and the kinase still bound, per cent of control (MAP2K7 (human)) was 100%, the kinase still bound, per cent of control (CAMK2D (human)) was 100% and the kinase still bound, per cent of control (STK33 (human)) was 93%. It also gave a kinase still bound, per cent of control (RPS6KA2 KD2 (human)) of 92%, a kinase still bound, per cent of control (EPHB2 (human)) of 90% and a kinase still bound, per cent of control (SRPK2 (human)) of 70%. It also gave a kinase still bound, per cent of control (ACVR2B (human)) of 56%, a kinase still bound, per cent of control (PRKCQ (human)) of 100% and a kinase still bound, per cent of control (SIK2 (human)) of 51%. It also gave a kinase still bound, per cent of control (EIF2AK1 (human)) of 100%, a kinase still bound, per cent of control (PAK7 (human)) of 75% and a kinase still bound, per cent of control (CAMK2G (human)) of 99%. For the same compound, the kinase still bound, per cent of control [1] was 9.8%, the kinase still bound, per cent of control (PRKX (human)) was 96% and the kinase still bound, per cent of control (BMX (human)) was 70%. It also gave a kinase still bound, per cent of control (NEK9 (human)) of 48%, a kinase still bound, per cent of control (PRKAA2 (human)) of 81% and a kinase still bound, per cent of control (MAPK12 (human)) of 78%. The kinase still bound, per cent of control (EPHA4 (human)) was 94%, the kinase still bound, per cent of control (ACVR1B (human)) was 86% and the kinase still bound, per cent of control (PRKD2 (human)) was 100%. It also gave a kinase still bound, per cent of control (TEC (human)) of 100%, a kinase still bound, per cent of control (FLT3 (human)) of 64% and a kinase still bound, per cent of control (CDC2L2 (human)) of 74%. For the same compound, the kinase still bound, per cent of control (MERTK (human)) was 100%, the kinase still bound, per cent of control (DAPK3 (human)) was 65% and the kinase still bound, per cent of control [2] was 2.2%. For the same compound, the kinase still bound, per cent of control (PIK3CD (human)) was 100%, the kinase still bound, per cent of control (CDK16 (human)) was 89% and the kinase still bound, per cent of control (STK17B (human)) was 24%. The kinase still bound, per cent of control [3] was 60%, the kinase still bound, per cent of control (ROCK1 (human)) was 22% and the kinase still bound, per cent of control (IRAK1 (human)) was 0.1%. It also gave a kinase still bound, per cent of control (CLK2 (human)) of 18%, a kinase still bound, per cent of control (MYLK4 (human)) of 34% and a kinase still bound, per cent of control (CAMK4 (human)) of 100%. For the same compound, the kinase still bound, per cent of control (FLT1 (human)) was 75%, the kinase still bound, per cent of control [4] was 100% and the kinase still bound, per cent of control (ACVR2A (human)) was 43%. The kinase still bound, per cent of control (MARK1 (human)) was 68%, the kinase still bound, per cent of control (CIT (human)) was 28% and the kinase still bound, per cent of control (HCK (human)) was 100%. For the same compound, the kinase still bound, per cent of control [5] was 98%.
